# In patent publication US20240358692A1, “TREATMENT OF SCLERODERMA” (Aisa Pharma, Inc., priority 2023, published 2024):
# “Also recorded” adds a separate entry of the source. Read-outs that look alike come from different tables or passages of the source.
# Columns and labels:
# [1] = tested on: participants with SSc-RP; experiment: SHAQ - Visual Analog Scale - Breathing Problems; format: in vivo, human
# Text: The standard, validated, patient reported outcome measures tool for SSc patients, the Scleroderma Health Assessment Questionnaire (SHAQ), will be used to assess the participant qualify of life. Details are attached in the Appendix. The participant quality of life will be scored, and a disability index calculated for each questionnaire completed by the patient at Screening and each in-clinic visit. The absolute change in participant quality of life from baseline to the end of each dosing period will be calculated similar to frequency data as before.
# The standard, validated, patient reported outcome measures tool for SSc patients, the SHAQ, was collected at the time points specified in the study schedules (FIG. 2 and FIGS. 4A and 4B) to assess the participant's quality of life. The SHAQ included a Raynaud's VAS that will also be reported separately.
# [2] = tested on: participants with SSc-RP; format: in vivo
# Text: Treatment-emergent AEs (TEAEs) are defined as AEs that occur or worsen after the dose of study drug. If the timing of the start of an AE could not be determined unambiguously from the start or end dates provided, it will be assumed to be a TEAE. An AE is considered related if the relationship to either of the study drug has been indicated as possibly or probably or definite related by the investigator. An AE leading to study withdrawal is defined as an AE that cause a subject early terminated from the study. AEs will be identified as emerging in the following parts: • TEAEs for Part A will be those that started during Part A (i.e., from the first dose in Part A to end of follow up of Part A) • TEAEs for Part B will be those that started during Part B (i.e., from the first dose in Part B to end of follow-up of Part B).
# In this study, AEs and SAEs were reported for all participants from the time of randomization until the completion of the Follow-up/EOS visit. Adverse events that were ongoing at the EOS visit were marked as Not Recovered/Not resolved on the AE eCRF page (see Section 9.4.4). The Investigator did full AE review during in-clinic visit. All spontaneously volunteered and enquired for, as well as observed AEs, were recorded in the participant's medical records and the eCRF.
# Severity of AEs were graded by the Investigator as one of: • Mild (Grade 1): A type of AE that is usually transient and may require only minimal treatment or therapeutic intervention.
# [3] = pooled Cilnidipine 10 mg and Cilnidipine 10 mg + Tadalafil 5 mg
# [4] = pooled Cilnidipine 20 mg and Cilnidipine 20 mg + Tadalafil 5 mg
# [5] = pooled cilnidipine 10 mg and 20 mg arms (combination: + tadalafil 5 mg)
smiles,measurement,setting,value
COCCOC(=O)C1=C(C)NC(C)=C(C(=O)OC/C=C/c2ccccc2)C1c1cccc([N+](=O)[O-])c1 (stereo not shown) [Cilnidipine],VAS Breathing Problems Change from Baseline Median,[1]; [3],0.000
same,VAS Breathing Problems Change from Baseline Min,[1]; [3],−1.20
same,VAS Breathing Problems Change from Baseline Q1,[1]; [3],−0.600
same,VAS Breathing Problems Change from Baseline Q3,[1]; [3],0.000
same,VAS Breathing Problems Day 12 Max,[1]; [3],6.30
same,VAS Breathing Problems Day 12 Median,[1]; [3],0.000
same,VAS Breathing Problems Day 12 Min,[1]; [3],0.00
same,VAS Breathing Problems Day 12 Q1,[1]; [3],0.000
same,VAS Breathing Problems Day 12 Q3,[1]; [3],2.350
same,VAS Breathing Problems Percent Change from Baseline Max,[1]; [3],38.5%
same,VAS Breathing Problems Percent Change from Baseline Mean,[1]; [3],−26.05%
same,VAS Breathing Problems Percent Change from Baseline Median,[1]; [3],−21.33%
same,VAS Breathing Problems Percent Change from Baseline Min,[1]; [3],−100.0%
same,VAS Breathing Problems Percent Change from Baseline Q1,[1]; [3],−63.33%
same,VAS Breathing Problems Percent Change from Baseline Q3,[1]; [3],11.23%
same,VAS Breathing Problems Change from Baseline Max,[1]; [4],3.70
same,VAS Breathing Problems Change from Baseline Median,[1]; [4],0.000
same,VAS Breathing Problems Change from Baseline Min,[1]; [4],−2.00
same,VAS Breathing Problems Change from Baseline Q1,[1]; [4],−0.800
same,VAS Breathing Problems Change from Baseline Q3,[1]; [4],0.600
same,VAS Breathing Problems Day 12 Max,[1]; [4],6.90
same,VAS Breathing Problems Day 12 Median,[1]; [4],0.400
same,VAS Breathing Problems Day 12 Min,[1]; [4],0.00
same,VAS Breathing Problems Day 12 Q1,[1]; [4],0.000
same,VAS Breathing Problems Day 12 Q3,[1]; [4],0.700
same,VAS Breathing Problems Percent Change from Baseline Max,[1]; [4],600.0%
same,VAS Breathing Problems Percent Change from Baseline Min,[1]; [4],−100.0%
same,VAS Breathing Problems Percent Change from Baseline Q1,[1]; [4],−75.00%
same,VAS Breathing Problems Percent Change from Baseline Q3,[1]; [4],150.00%
same,VAS Breathing Problems Change from Baseline Max,[1]; [5],0.30
same,VAS Breathing Problems Change from Baseline Median,[1]; [5],0.000
same,VAS Breathing Problems Change from Baseline Min,[1]; [5],−2.00
same,VAS Breathing Problems Change from Baseline Q1,[1]; [5],−1.200
same,VAS Breathing Problems Change from Baseline Q3,[1]; [5],0.000
same,VAS Breathing Problems Day 12 Max,[1]; [5],6.30
same,VAS Breathing Problems Day 12 Median,[1]; [5],0.000
same,VAS Breathing Problems Day 12 Min,[1]; [5],0.00
same,VAS Breathing Problems Day 12 Q1,[1]; [5],0.000
same,VAS Breathing Problems Day 12 Q3,[1]; [5],0.500
same,VAS Breathing Problems Percent Change from Baseline Max,[1]; [5],150.0%
same,VAS Breathing Problems Percent Change from Baseline Mean,[1]; [5],−8.17%
same,VAS Breathing Problems Percent Change from Baseline Median,[1]; [5],−41.33%
same,VAS Breathing Problems Percent Change from Baseline Min,[1]; [5],−100.0%
same,VAS Breathing Problems Percent Change from Baseline Q1,[1]; [5],−83.33%
same,VAS Breathing Problems Percent Change from Baseline Q3,[1]; [5],67.00%
same,tolerability,"[2]; 10 mg and 20 mg, alone or in combination with tadalafil",well tolerated
same,Safety: number of AE,"[2]; Cilnidipine 20 mg, HA, mild, n = 8",1AE (HA−mild; 1
same,Safety: withdrawals,"[2]; Cilnidipine 20 mg, n = 8",1AE (HA−mild; 1 withdrawal
same,Safety: withdrawals,"[2]; Pooled Cilnidipine, n = 9",T); no withdrawals
same,treatment discontinuations due to intolerance,[2]; all patients who received any dose of cilnidipine (n=17),no treatment discontinuations due to intolerance were reported
same,incidence of Adverse Events / overall adverse event rate,"[2]; all patients who received any dose of cilnidipine (n=17), Part A",17%
same,Adverse effects,[2]; any Profervia dose,17% Adverse effects in
same,severity grade of adverse events,"[2]; patients treated with cilnidipine, Part A",only Grade 1 Adverse Events (AEs) were reported; also recorded: only mild (Grade 1) adverse events occurred
same,Safety: grade of Adverse Events (AEs),[2]; summary of data,Grade 1 Adverse
same,Safety: treatment D/Cs (discontinuations),[2]; summary of data,No treatment D/Cs
